From ChEMBL document CHEMBL1201862, “PubChem BioAssay data set” (2004)
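Grown in 96-well plates, cells were treated for 48 hours with each compound at five concentrations. Insufficient inhibition: endpoint recorded as highest concentration tested. GI50: concentration for 50% inhibition of growth.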 Calls of active or inactive are those of the source. Cut-off read from the data, not from the text of the source: active = GI50 up to about 1.1 µM and inactive = higher. Where a SMILES comes first, the peptide text is derived from it. The star is where a group is joined. Fmoc = O=C(OCC1c2ccccc2-c2ccccc21)*; OBn = c1ccc(CO*)cc1; tBu = CC(C)(C)*

Tests used:
Assay in all cases: NCI anticancer screen, dose series, 48 h
[1] = test system: K562
[2] = test system: RPMI-8226
[3] = test system: SNB-19
[4] = test system: EKVX
[5] = test system: SW-620
[6] = test system: OVCAR-5
[7] = test system: SK-MEL-28
[8] = test system: Malme-3M
[9] = test system: OVCAR-8
[10] = test system: MDA-N
[11] = test system: HT-29
[12] = test system: HOP-92
[13] = test system: NCI-H23
[14] = test system: HCC 2998
[15] = test system: SK-MEL-2
[16] = test system: U-251
[17] = test system: NCI-H460
[18] = test system: COLO 205
[19] = test system: MDA-MB-435
[20] = test system: TK-10

Structure (SMILES)	GI50 [1]	GI50 [2]	GI50 [3]	GI50 [4]	GI50 [5]	GI50 [6]	GI50 [7]	GI50 [8]	GI50 [9]	GI50 [10]	GI50 [11]	GI50 [12]	GI50 [13]	GI50 [14]	GI50 [15]	GI50 [16]	GI50 [17]	GI50 [18]	GI50 [19]	GI50 [20]
COc1cccc(-c2cc(O)c3cc(N4CCCC4)ccc3n2)c1	< 0.001 µM (active)	< 0.001 µM (active)	< 0.001 µM (active)	0.166 µM (active)	< 0.001 µM (active)	0.00328 µM (active)	< 0.001 µM (active)	< 0.001 µM (active)	< 0.001 µM (active)	< 0.001 µM (active)	< 0.001 µM (active)	0.00112 µM (active)	0.00279 µM (active)	0.00206 µM (active)	< 0.001 µM (active)	< 0.001 µM (active)	< 0.001 µM (active)	< 0.001 µM (active)	< 0.001 µM (active)	2.6 µM (inactive)
CN(C)c1ccc(/C=N/c2ccc(-c3nc4ccccc4s3)cc2)cc1	28.8 µM (inactive)	25.6 µM (inactive)	57.9 µM (inactive)	24.6 µM (inactive)	22.9 µM (inactive)	40.2 µM (inactive)	48.9 µM (inactive)	31.6 µM (inactive)	39.5 µM (inactive)	34.5 µM (inactive)	32.5 µM (inactive)	22.4 µM (inactive)	29.9 µM (inactive)	20.8 µM (inactive)	22.9 µM (inactive)	29.2 µM (inactive)	27.4 µM (inactive)	23.1 µM (inactive)	33.8 µM (inactive)	30.1 µM (inactive)
Cc1ccc(S(=O)(=O)N2CC(CCN)c3ccccc32)cc1 (stereo not given)	4.35 µM (inactive)	6.01 µM (inactive)	4.97 µM (inactive)	13 µM (inactive)	4.34 µM (inactive)	4.43 µM (inactive)	5.16 µM (inactive)	4 µM (inactive)	3.59 µM (inactive)	0.883 µM (active)	2.89 µM (inactive)	4.19 µM (inactive)	6.38 µM (inactive)	4.76 µM (inactive)	4.28 µM (inactive)	3.72 µM (inactive)	5.08 µM (inactive)	4.06 µM (inactive)	1.53 µM (inactive)	7.89 µM (inactive)
CCOP(=O)(OCC)/C(C#N)=C/c1cnc(C)[nH]1	> 100 µM (inactive)	> 100 µM (inactive)	> 100 µM (inactive)	> 100 µM (inactive)	> 100 µM (inactive)	> 100 µM (inactive)	> 100 µM (inactive)	> 100 µM (inactive)	> 100 µM (inactive)	> 100 µM (inactive)	> 100 µM (inactive)	> 100 µM (inactive)	> 100 µM (inactive)	> 100 µM (inactive)	> 100 µM (inactive)	> 100 µM (inactive)	> 100 µM (inactive)	> 100 µM (inactive)	> 100 µM (inactive)	> 100 µM (inactive)
CC(C)Oc1c(-c2ccc(F)cc2)c(O)c2c3c1oc(=O)n3C=CC2C (stereo not given)	6.59 µM (inactive)	6.27 µM (inactive)	15.8 µM (inactive)	14.3 µM (inactive)	14.3 µM (inactive)	24.7 µM (inactive)	15.7 µM (inactive)	22.3 µM (inactive)	15.8 µM (inactive)	12.4 µM (inactive)	16.6 µM (inactive)	13.9 µM (inactive)	11.8 µM (inactive)	13.4 µM (inactive)	17.8 µM (inactive)	15.5 µM (inactive)	14.2 µM (inactive)	16 µM (inactive)	17.9 µM (inactive)	16.9 µM (inactive)
O=C(c1ccc(-c2ccccc2)cc1)N(Cc1cccnc1)C(=S)N(Cc1cccnc1)C(=O)c1ccc(-c2ccccc2)cc1	0.394 µM (active)	3.56 µM (inactive)	> 100 µM (inactive)	> 100 µM (inactive)	> 100 µM (inactive)	> 100 µM (inactive)	> 100 µM (inactive)	> 100 µM (inactive)	> 100 µM (inactive)	43.5 µM (inactive)	48.5 µM (inactive)	8.95 µM (inactive)	> 100 µM (inactive)	> 100 µM (inactive)	> 100 µM (inactive)	> 100 µM (inactive)	> 100 µM (inactive)	> 100 µM (inactive)	54.6 µM (inactive)	> 100 µM (inactive)
Cc1occc1C(=S)Nc1ccc(Cl)c(/C=N/OC(C)C)c1	29.7 µM (inactive)	20 µM (inactive)	27.1 µM (inactive)	23 µM (inactive)	20.9 µM (inactive)	21 µM (inactive)	27 µM (inactive)	19.8 µM (inactive)	22.8 µM (inactive)	20.8 µM (inactive)	19.3 µM (inactive)	16.1 µM (inactive)	20.1 µM (inactive)	26.5 µM (inactive)	19.2 µM (inactive)	19.5 µM (inactive)	21 µM (inactive)	16.9 µM (inactive)	16.4 µM (inactive)	25.5 µM (inactive)
Oc1c([Si](c2ccccc2)(c2ccccc2)c2ccccc2)cc2ccccc2c1-c1c(O)c([Si](c2ccccc2)(c2ccccc2)c2ccccc2)cc2ccccc12	34.1 µM (inactive)	> 100 µM (inactive)	> 100 µM (inactive)	> 100 µM (inactive)	> 100 µM (inactive)	> 100 µM (inactive)	> 100 µM (inactive)	> 100 µM (inactive)	> 100 µM (inactive)	> 100 µM (inactive)	> 100 µM (inactive)	> 100 µM (inactive)	> 100 µM (inactive)	> 100 µM (inactive)	> 100 µM (inactive)	> 100 µM (inactive)	> 100 µM (inactive)	> 100 µM (inactive)	> 100 µM (inactive)	> 100 µM (inactive)
CC[C@@H]1CC[C@@H]2[C@H](CC[C@]3(C)[C@@H](OC(C)=O)CC[C@@H]23)[C@H]1C(=O)OC	20 µM (inactive)	19.6 µM (inactive)	25.4 µM (inactive)	25.2 µM (inactive)	21.8 µM (inactive)	23.1 µM (inactive)	32.2 µM (inactive)	17.3 µM (inactive)	27.9 µM (inactive)	19.5 µM (inactive)	25 µM (inactive)	13.4 µM (inactive)	24.4 µM (inactive)	97.9 µM (inactive)	20.1 µM (inactive)	21.2 µM (inactive)	23 µM (inactive)	16 µM (inactive)	20.9 µM (inactive)	> 100 µM (inactive)
O=c1cc(N=P(c2ccccc2)(c2ccccc2)c2ccccc2)n(-c2ccccc2)c(=O)n1-c1ccccc1	3.31 µM (inactive)	4.92 µM (inactive)	17.7 µM (inactive)	10.4 µM (inactive)	7.45 µM (inactive)	23.2 µM (inactive)	23.9 µM (inactive)	11.8 µM (inactive)	12.3 µM (inactive)	7.64 µM (inactive)	15.9 µM (inactive)	9.02 µM (inactive)	5.85 µM (inactive)	8.26 µM (inactive)	13.8 µM (inactive)	8.02 µM (inactive)	4.15 µM (inactive)	6.56 µM (inactive)	5.2 µM (inactive)	15.2 µM (inactive)
CC(C)(Cc1ccccc1)NC1=NCCO1	> 100 µM (inactive)	> 100 µM (inactive)	> 100 µM (inactive)	> 100 µM (inactive)	> 100 µM (inactive)	> 100 µM (inactive)	> 100 µM (inactive)	> 100 µM (inactive)	> 100 µM (inactive)	> 100 µM (inactive)	> 100 µM (inactive)	> 100 µM (inactive)	> 100 µM (inactive)	> 100 µM (inactive)	> 100 µM (inactive)	> 100 µM (inactive)	> 100 µM (inactive)	> 100 µM (inactive)	> 100 µM (inactive)	> 100 µM (inactive)
CC(OC(C)(C)C)C(NC(=O)OCC1c2ccccc2-c2ccccc21)C(=O)NC(Cc1ccccc1)C(=O)OCc1ccccc1 (stereo not given) (Fmoc-Thr(tBu)-Phe-OBn; configuration not given here)	> 100 µM (inactive)	> 71.8 µM (inactive)	> 100 µM (inactive)	> 100 µM (inactive)	> 100 µM (inactive)	> 100 µM (inactive)	> 100 µM (inactive)	> 100 µM (inactive)	> 100 µM (inactive)	> 100 µM (inactive)	> 100 µM (inactive)	> 21.2 µM (inactive)	> 100 µM (inactive)	> 100 µM (inactive)	> 100 µM (inactive)	> 100 µM (inactive)	> 100 µM (inactive)	> 100 µM (inactive)	> 100 µM (inactive)	> 100 µM (inactive)
